The text below walks through data of publication PMC12848076, “Identification of two odorant receptors tuned to alarm pheromone compounds in the honey bee Apis mellifera” (Communications Biology, 2025).

Marks after values point to notes of the source that are not given here.

Holding throughout (assay type): cell-based
In assay [1] the target is T1, AmelOR109 (Apis mellifera, UniProt A0A7M6UWX9).
T1 construct: gene Or109; full-length ORF, codon-optimized, pUAST.attB at 86F8; expressed in ab3A OSNs of D. melanogaster lacking OR22a/OR22b (empty neuron); endogenous Drosophila Orco as co-receptor; with Odorant receptor coreceptor
T1 sequence (A0A7M6UWX9 1-390): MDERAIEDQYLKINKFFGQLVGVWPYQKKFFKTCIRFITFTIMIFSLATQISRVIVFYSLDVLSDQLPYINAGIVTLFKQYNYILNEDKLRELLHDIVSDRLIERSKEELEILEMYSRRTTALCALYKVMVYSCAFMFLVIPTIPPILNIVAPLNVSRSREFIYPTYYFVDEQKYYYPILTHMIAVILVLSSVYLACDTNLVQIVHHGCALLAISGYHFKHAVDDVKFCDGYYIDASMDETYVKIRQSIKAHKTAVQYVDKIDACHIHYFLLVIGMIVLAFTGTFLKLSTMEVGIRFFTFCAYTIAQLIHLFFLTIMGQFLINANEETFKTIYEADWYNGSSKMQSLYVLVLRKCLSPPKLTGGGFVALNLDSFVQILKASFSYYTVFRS
T1 sequence (Q9VNB5 1-486 partner): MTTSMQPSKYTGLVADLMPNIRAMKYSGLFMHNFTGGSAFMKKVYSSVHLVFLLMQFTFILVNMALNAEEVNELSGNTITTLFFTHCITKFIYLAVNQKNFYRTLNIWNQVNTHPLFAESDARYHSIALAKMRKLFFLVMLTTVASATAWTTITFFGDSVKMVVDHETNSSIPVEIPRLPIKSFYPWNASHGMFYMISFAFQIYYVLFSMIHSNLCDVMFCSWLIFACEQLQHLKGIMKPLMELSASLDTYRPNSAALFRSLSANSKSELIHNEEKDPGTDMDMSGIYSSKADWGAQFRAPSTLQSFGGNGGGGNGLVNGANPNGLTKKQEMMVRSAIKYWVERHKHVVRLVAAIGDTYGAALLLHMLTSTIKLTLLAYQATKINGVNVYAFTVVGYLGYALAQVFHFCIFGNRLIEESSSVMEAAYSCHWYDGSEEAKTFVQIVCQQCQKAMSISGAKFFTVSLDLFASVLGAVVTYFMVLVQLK
The experiment in a line: single sensillum recording, ab3A OSN, dose-response. The settings on record: agonist; estimated airborne amount in stimulus, not a concentration; vs mineral oil; full curve only in Figure 5B.

Assay [2] has as its target T1, AmelOR109. As to the kind of experiment: transcuticular calcium imaging (GCaMP6s), ab3A OSN. The conditions noted are these: agonist; 1000 µg on filter paper; vs mineral oil.
The target in assay [3] is T1, AmelOR109. The experiment in a line: single sensillum recording, ab3A OSN. The conditions noted are these: agonist; 1000 µg on filter paper; vs mineral oil.

`CC(=O)OCc1ccccc1` [benzyl acetate]: on AmelOR109 [1], the “dose of statistical significance” value was 390 pmol. As to `CCCCCCCCOC(C)=O` [octyl acetate], at AmelOR109 [1], the “dose of statistical significance” value is 15000 pmol. As to `CC(C)=CCC/C(C)=C/C(=O)O` [geranic acid], the ΔF/F0 entry on AmelOR109 [2] is “two compounds from the aggregation pheromone were strongly active: geranic acid”. As to `CCCC(=O)OCC` [ethyl butyrate], the “dose of statistical significance” value on AmelOR109 [1] was 47000 pmol.

As for `CC(=O)OCCC(C)C` [isopentyl acetate], the “dose of statistical significance” value at AmelOR109 [1] is 2700 pmol. `CCC(C)=O` [2-butanone]: the spikes per second result on AmelOR109 [3] is reported as “AmelOR109 was activated by multiple compounds in the panel, including 2-butanone”.
